For the experiment, the system named is A172 glioblastoma cells. The experiment can be described thus: Cell viability, Trypan blue exclusion assay. The format is cell-based. To be noted: Homo sapiens, A 172, TMZ 10 μM for 144 hours in combination with 24-hour QMR treatment (4 MHz current waves), vs TMZ alone, FIG. 12b, read-out: cell viability reduced more than the reduction obtained in cells treated with TMZ drug alone. As for the experimental part: Glioblastoma cell lines A172, T98G and U87MG were used. A172 and T98G cells (Sigma-Aldrich, St. Louis, MO, USA) were cultured in Dulbecco's Modified Eagle's Medium/Nutrient Mixture F-12 (DMEM/F12 GlutaMAX, Gibco, Thermo Fisher Scientific, Waltham, MA, USA) added with 10% foetal bovine serum (FBS) (Qualified Australian, Gibco, Thermo Fisher Scientific) and 1% penicillin/streptomycin (Sigma-Aldrich).
The cell lines were stimulated with QMR using a prototype QMR device from the company Telea (Telea Electronic Engineering, Sandrigo, VI, Italy). The device, suitably adapted for the present in vitro experiments, generated high-frequency sinusoidal alternating electric current waves of 4 MHz with harmonics from 4 to 64 MHz and had the following data: power supply 100÷230 V˜50/60 Hz; maximum output power, 5 W/400Ω.
QMR was applied to the cells using a pair of electrodes that were placed inside a 100 mm Petri dish, at the edge, and connected to the generator device. […] This value was measured by means of three independent measurements with a data-logger probe (iLog, Escort Scunthorpe, UK) placed in the culture medium. […]
For these analyses, the cells were treated for 144 hours with 10-25 μM of TMZ administered at the same time as or after QMR stimulation. […] Cell viability, apoptosis and the cell cycle were assessed after 144 hours. […]

Turning to `Cn1nnc2c(C(N)=O)ncn2c1=O` [TMZ, temozolomide], the cytotoxicity at 10 µM was around 12%.

The values are drawn from US20240066008A1, “Device and Antitumor Drug for the Treatment of Neoplastic Cells” (Telea Electronic Engineering SRL, priority 2021, published 2024).
